For this assay, the target named is T1, KMO mouse enzyme (Mus musculus, UniProt Q91WN4).
T1 construct: KMO enzyme prepared at Evotec from mouse liver (4-6 weeks old) via mitochondria isolation; from tissue; host or cells: mouse liver (4-6 weeks old), mitochondria isolation, prepared at Evotec
The experiment in a line: KMO mouse enzyme assay: L-Kynurenine hydroxylation to 3-Hydroxy-Kynurenine monitored by LC/MS (MRM). To be noted: compound at 10 μM, KMO enzyme from mouse liver mitochondria; for inhibition at 10 µM: read-out: INH.Mouse @ 10 μM. Type of assay: biochemical. How it is done: A method of monitoring L-Kynurenine (KYN) hydroxylation to form 3-Hydroxy-Kynurenine (3OH-KYN) by LC/MS is described. Product is quantified by multiple reaction monitoring (MRM method).
• Compound: Stock concentrations: 10 mM in 100% DMSO • Enzyme: KMO enzyme prepared at Evotec from mouse liver (4-6 weeks old) via mitochondria isolation as described in the literature • Substrate: L-Kynurenine (Sigma: Cat# K3750, stock concentration: 10 mM in 100 mM potassium phosphate buffer, pH 7.4) Assay Conditions: […]

Structures are written as SMILES. Counter-ions that a name gives are not always drawn.

T1 sequence (Q91WN4 whole entry): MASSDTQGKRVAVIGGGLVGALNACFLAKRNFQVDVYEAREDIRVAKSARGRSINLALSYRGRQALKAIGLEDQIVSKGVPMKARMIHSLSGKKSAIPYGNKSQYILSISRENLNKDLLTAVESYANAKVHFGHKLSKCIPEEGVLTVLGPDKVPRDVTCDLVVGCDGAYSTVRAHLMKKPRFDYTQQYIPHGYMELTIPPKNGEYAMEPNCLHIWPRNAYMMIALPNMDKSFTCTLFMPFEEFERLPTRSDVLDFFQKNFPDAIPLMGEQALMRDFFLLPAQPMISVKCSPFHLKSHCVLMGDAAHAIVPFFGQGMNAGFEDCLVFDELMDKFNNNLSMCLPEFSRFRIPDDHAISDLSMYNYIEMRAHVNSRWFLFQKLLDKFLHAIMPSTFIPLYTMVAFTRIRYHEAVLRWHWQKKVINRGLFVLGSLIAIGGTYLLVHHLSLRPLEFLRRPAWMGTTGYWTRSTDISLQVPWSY

Take `CC(=O)N1CCN(C(=O)c2cc(-c3cccc(Cl)c3)ncn2)CC1` [1-{4-[6-(3-Chloro-phenyl)-pyrimidine-4-carbonyl]-piperazin-1-yl}-ethanone]: the inhibition at 10 µM amounted to 94.9%.
Consider `O=C(O)c1ccnc(-c2cccc(Cl)c2)c1` [2-(3-Chloro-phenyl)-isonicotinic acid hydrochloride salt], for which the inhibition at 10 µM worked out at 53.5%.
With `O=C(Nc1ccccc1)c1cc(-c2ccc(Cl)c(Cl)c2)ccn1` [4-(3,4-Dichloro-phenyl)-pyridine-2-carboxylic acid phenylamide], the inhibition at 10 µM was 43.5%.
As for `COc1cncc(NC(=O)c2cc(-c3cc(Cl)cc(Cl)c3)ccn2)c1` [4-(3,5-Dichloro-phenyl)-pyridine-2-carboxylic acid (5-methoxy-pyridin-3-yl)-amide], the inhibition at 10 µM came out at 52.6%.
As for `Cl.O=C(O)c1cc(-c2cc(Cl)cc(Cl)c2)ccn1` [4-(3,5-Dichloro-phenyl)-pyridine-2-carboxylic acid hydrocloride salt], the “INH.Mouse @ 10 μM” value is 76.6.
As to `O=C(Nc1ccccc1)c1cc(-c2cc(Cl)cc(Cl)c2)ccn1` [4-(3,5-Dichloro-phenyl)-pyridine-2-carboxylic acid phenylamide], the inhibition at 10 µM is 59.7%.
Same read-out and setting: the result for `COc1cncc(NC(=O)c2cc(-c3cccc(Cl)c3)ccn2)c1` [4-(3-Chloro-phenyl)-pyridine-2-carboxylic acid (5-methoxy-pyridin-3-yl)-amide] reads 53.8%; that for `COC(=O)c1cc(-c2cccc(Cl)c2)ccn1` [4-(3-Chloro-phenyl)-pyridine-2-carboxylic acid methyl ester], 100%; that for `Cc1ccc(NC(=O)c2cc(-c3cccc(Cl)c3)ccn2)cc1` [4-(3-Chloro-phenyl)-pyridine-2-carboxylic acid p-tolylamide], 85.6%.
Regarding `O=C(Nc1ccccc1)c1cc(-c2cccc(Cl)c2)ccn1` [4-(3-Chloro-phenyl)-pyridine-2-carboxylic acid phenylamide], the inhibition at 10 µM is 68.4%.
On the same count and under the same terms, the result for `O=C(Nc1cccnc1)c1cc(-c2cccc(Cl)c2)ccn1` [4-(3-Chloro-phenyl)-pyridine-2-carboxylic acid pyridin-3-ylamide] reads 52.3%; that for `O=C(Nc1cncnc1)c1cc(-c2cccc(Cl)c2)ccn1` [4-(3-Chloro-phenyl)-pyridine-2-carboxylic acid pyrimidin-5-ylamide], 60.8%.
The same measure, in the same setting: with `O=C(O)c1cc(-c2cccc(Cl)c2)ccn1` [4-(3-Chloro-phenyl)-pyridine-2-carboxylic acid] the figure was 100%.
On to `O=C1CN(C(=O)c2cc(-c3cccc(Cl)c3)ncn2)CCN1` [4-[6-(3-Chloro-phenyl)-pyrimidine-4-carbonyl]-piperazin-2-one], for which the inhibition at 10 µM worked out at 100%.
`COC(=O)c1cc(-c2ccc(F)cc2F)ncn1` [6-(2,4-Difluoro-phenyl)-pyrimidine-4-carboxylic acid methyl ester]: the inhibition at 10 µM was determined as 100%.
Consider `O=C(O)c1cc(-c2cc(C(F)(F)F)ccc2F)ncn1` [6-(2-Fluoro-5-trifluoromethyl-phenyl)-pyrimidine-4-carboxylic acid], for which the inhibition at 10 µM stood at 80.3%.
On the same count and under the same terms, the result for `COC(=O)c1cc(-c2ccc(Cl)c(Cl)c2)nc(C)n1` [6-(3,4-Dichloro-phenyl)-2-methyl-pyrimidine-4-carboxylic acid methyl ester] reads 95.5%; that for `COC(=O)c1ncnc(-c2ccc(Cl)c(Cl)c2)c1F` [6-(3,4-Dichloro-phenyl)-5-fluoro-pyrimidine-4-carboxylic acid methyl ester], 100%.
Still for that read-out and setting: with `Cn1cc(NC(=O)c2cc(-c3ccc(Cl)c(Cl)c3)ncn2)cn1` [6-(3,4-Dichloro-phenyl)-pyrimidine-4-carboxylic acid (1-methyl-1H-pyrazol-4-yl)-amide] the figure was 100%; with `Cc1ccc(NC(=O)c2cc(-c3ccc(Cl)c(Cl)c3)ncn2)c(C)n1` [6-(3,4-Dichloro-phenyl)-pyrimidine-4-carboxylic acid (2,6-dimethyl-pyridin-3-yl)-amide], 96.8%.
Same read-out and setting: with `Cc1ncccc1NC(=O)c1cc(-c2ccc(Cl)c(Cl)c2)ncn1` [6-(3,4-Dichloro-phenyl)-pyrimidine-4-carboxylic acid (2-methyl-pyridin-3-yl)-amide] the figure was 84.2%; with `Cc1ncc(NC(=O)c2cc(-c3ccc(Cl)c(Cl)c3)ncn2)cn1` [6-(3,4-Dichloro-phenyl)-pyrimidine-4-carboxylic acid (2-methyl-pyrimidin-5-yl)-amide], 85.6%; with `Cc1cc(NC(=O)c2cc(-c3ccc(Cl)c(Cl)c3)ncn2)on1` [6-(3,4-Dichloro-phenyl)-pyrimidine-4-carboxylic acid (3-methyl-isoxazol-5-yl)-amide], 100%.
`COc1cncc(NC(=O)c2cc(-c3ccc(Cl)c(Cl)c3)ncn2)c1` [6-(3,4-Dichloro-phenyl)-pyrimidine-4-carboxylic acid (5-methoxy-pyridin-3-yl)-amide]: the inhibition at 10 µM was found to be 100%.
As for `Cc1nnc(NC(=O)c2cc(-c3ccc(Cl)c(Cl)c3)ncn2)o1` [6-(3,4-Dichloro-phenyl)-pyrimidine-4-carboxylic acid (5-methyl-[1,3,4]oxadiazol-2-yl)-amide], the inhibition at 10 µM is 100%.
Take `Cc1ccc(NC(=O)c2cc(-c3ccc(Cl)c(Cl)c3)ncn2)cn1.Cl` [6-(3,4-Dichloro-phenyl)-pyrimidine-4-carboxylic acid (6-methyl-pyridin-3-yl)-amide hydrochloride salt]: the “INH.Mouse @ 10 μM” value came out at 94.0.
On to `Cc1ccc(NC(=O)c2cc(-c3ccc(Cl)c(Cl)c3)ncn2)cn1` [6-(3,4-Dichloro-phenyl)-pyrimidine-4-carboxylic acid (6-methyl-pyridin-3-yl)-amide], for which the inhibition at 10 µM amounted to 100%.
The same measure, in the same setting: the result for `O=C(NCc1ccncc1)c1cc(-c2ccc(Cl)c(Cl)c2)ncn1` [6-(3,4-Dichloro-phenyl)-pyrimidine-4-carboxylic acid (pyridin-4-ylmethyl)-amide] reads 95.5%; that for `O=C(Nc1nncs1)c1cc(-c2ccc(Cl)c(Cl)c2)ncn1` [6-(3,4-Dichloro-phenyl)-pyrimidine-4-carboxylic acid [1,3,4]thiadiazol-2-ylamide], 100%.
As for `O=C(Nc1ccon1)c1cc(-c2ccc(Cl)c(Cl)c2)ncn1` [6-(3,4-Dichloro-phenyl)-pyrimidine-4-carboxylic acid isoxazol-3-ylamide], the inhibition at 10 µM worked out at 100%.
As for `COC(=O)c1cc(-c2ccc(Cl)c(Cl)c2)ncn1` [6-(3,4-Dichloro-phenyl)-pyrimidine-4-carboxylic acid methyl ester], the inhibition at 10 µM amounted to 101%.
Same read-out and setting: with `Cc1ccc(NC(=O)c2cc(-c3ccc(Cl)c(Cl)c3)ncn2)cc1` [6-(3,4-Dichloro-phenyl)-pyrimidine-4-carboxylic acid p-tolylamide] the figure was 100%.
Turning to `O=C(Nc1ccccn1)c1cc(-c2ccc(Cl)c(Cl)c2)ncn1` [6-(3,4-Dichloro-phenyl)-pyrimidine-4-carboxylic acid pyridin-2-ylamide], the inhibition at 10 µM turned out to be 100%.
Turning to `O=C(Nc1cccnc1)c1cc(-c2ccc(Cl)c(Cl)c2)ncn1` [6-(3,4-Dichloro-phenyl)-pyrimidine-4-carboxylic acid pyridin-3-ylamide], the inhibition at 10 µM is 83.5%.

For the origin of these results see patent publication US9145373B2, “Certain kynurenine-3-monooxygenase inhibitors, pharmaceutical compositions, and methods of use thereof” (CHDI FOUNDATION, INC., priority 2008, dated 2015).
